From US7417068B2, “EP4 receptor antagonists” (Asterand UK Limited, priority 2003, dated 2008)

Assays:
human EP2 receptor = target: T1, human EP2 receptor (Homo sapiens, UniProt P43116); assay: Binding ability to human EP receptors ([3H]PGE2 displacement), EP2; settings: membranes from cells stably transfected with human EP2 receptor; 3 nM [3H]PGE2; Cheng-Prusoff from IC50; read-out: pKi EP2 (converted)
T1 construct: expressed in transfected cells
Procedure: (§1) Membranes were prepared from cells stably transfected with human EP receptor cDNA. In brief, cells were cultured to confluency, scraped from culture flasks, and centrifuged (800 g, 8 minutes, 4° C.). Cells were twice washed in ice cold homogenisation buffer containing 10 mMTris-HCl, 1 mM EDTA.2Na, 250 mM sucrose, 1 mM PMSF, 0.3 mM indomethacin, pH 7.4, homogenised and re-centrifuged as before. The supernatant was stored on ice and pellets re-homogenised and re-spun. Supernatants were pooled and centrifuged at 40000 g, 10 minutes, 4° C. Resultant membrane pellets were stored at −80° C. until use.
(§2) For assay, membranes expressing human EP4, EP3, EP2 or EP1 receptors were incubated in Millipore (MHVBN45) plates containing assay buffer, radiolabelled [^3H]PGE2 and 0.1 to 10 000 nM concentrations of compounds. Incubations were performed at suitable temperatures and for suitable times to allow equilibrium to be reached. Non-specific binding was determined in the presence of 10 uM PGE2. Bound and free radiolabel was separated by vacuum manifold filtration using appropriate wash buffers, and bound radiolabel was determined by scintillation counting. Constituents of each of the buffers are included in table 1 below.
(§3) The affinity or pKi of each compound for each receptor was calculated from the concentration causing 50% radioligand displacement (IC50) using the Cheng-Prusoff equation: […]

human EP4 receptor = target: T2, human EP4 receptor (Homo sapiens, UniProt P35408); assay: Binding ability to human EP receptors ([3H]PGE2 displacement), EP4; settings: membranes from cells stably transfected with human EP4 receptor; 1 nM [3H]PGE2; Cheng-Prusoff from IC50; read-out: pKi EP4 (converted)
T2 construct: expressed in transfected cells
T2 sequence (P35408 whole entry): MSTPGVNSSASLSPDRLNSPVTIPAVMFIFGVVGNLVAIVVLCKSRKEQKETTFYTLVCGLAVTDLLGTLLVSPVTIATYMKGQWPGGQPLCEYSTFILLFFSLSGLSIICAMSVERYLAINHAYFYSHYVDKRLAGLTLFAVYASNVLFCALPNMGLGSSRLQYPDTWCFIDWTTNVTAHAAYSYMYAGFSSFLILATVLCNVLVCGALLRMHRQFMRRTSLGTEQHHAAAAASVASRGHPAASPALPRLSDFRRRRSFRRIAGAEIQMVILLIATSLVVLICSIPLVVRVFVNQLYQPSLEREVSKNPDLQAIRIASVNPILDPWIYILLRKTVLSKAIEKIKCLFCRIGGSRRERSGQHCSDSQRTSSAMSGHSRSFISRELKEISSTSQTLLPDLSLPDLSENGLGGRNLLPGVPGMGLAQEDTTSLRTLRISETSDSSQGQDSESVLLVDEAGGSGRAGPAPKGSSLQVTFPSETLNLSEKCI
Procedure: as §1, §2, §3

human EP3 receptor = target: T3, human EP3 receptor (Homo sapiens, UniProt P43115); assay: Binding ability to human EP receptors ([3H]PGE2 displacement), EP3; settings: membranes from cells stably transfected with human EP3 receptor; 2.5 nM [3H]PGE2; Cheng-Prusoff from IC50; read-out: pKi EP3 (converted)
T3 construct: expressed in transfected cells
T3 sequence (P43115 1-390): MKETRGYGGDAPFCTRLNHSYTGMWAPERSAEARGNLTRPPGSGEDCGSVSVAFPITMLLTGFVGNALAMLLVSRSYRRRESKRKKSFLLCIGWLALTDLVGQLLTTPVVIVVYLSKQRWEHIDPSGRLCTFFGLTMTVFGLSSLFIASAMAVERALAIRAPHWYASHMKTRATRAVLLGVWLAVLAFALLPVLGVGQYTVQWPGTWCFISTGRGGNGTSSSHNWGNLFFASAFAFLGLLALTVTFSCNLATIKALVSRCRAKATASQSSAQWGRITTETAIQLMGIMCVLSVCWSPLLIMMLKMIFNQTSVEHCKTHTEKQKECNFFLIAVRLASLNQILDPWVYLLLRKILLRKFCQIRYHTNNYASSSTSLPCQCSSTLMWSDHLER
Procedure: as §1, §2, §3

T1 sequence (P43116 whole entry): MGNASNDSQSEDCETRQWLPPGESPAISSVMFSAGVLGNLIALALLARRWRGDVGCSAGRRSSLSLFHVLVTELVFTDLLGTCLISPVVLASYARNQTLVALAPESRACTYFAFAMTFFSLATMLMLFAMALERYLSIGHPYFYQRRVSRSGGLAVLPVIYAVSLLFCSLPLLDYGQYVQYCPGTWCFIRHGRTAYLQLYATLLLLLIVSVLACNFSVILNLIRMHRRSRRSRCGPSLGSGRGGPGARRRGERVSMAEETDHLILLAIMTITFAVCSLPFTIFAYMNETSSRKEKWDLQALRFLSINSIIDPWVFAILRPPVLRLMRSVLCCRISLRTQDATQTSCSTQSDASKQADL

Question: What does the source list for Cc1cc(C(=O)NCc2ccc(C(=O)O)cc2)c(-c2ccccc2)o1 [Compound 20, 4-{[(5-Methyl-2-phenyl-furan-3-carbonyl)-amino]-methyl}-benzoic acid]?
Answer: Ki (human EP2 receptor): > 10 µM; Ki (human EP4 receptor): < 10 µM; Ki (human EP3 receptor): > 10 µM

Question: Which Ki (human EP2 receptor) does the source give for Cc1oc(-c2ccc(OC(F)F)cc2)cc1C(=O)Nc1ccc(CC(=O)NS(=O)(=O)Cc2ccccc2)cc1 [Compound 31, 5-(4-Difluoromethoxy-phenyl)-2-methyl-furan-3-carboxylic acid [4-(2-oxo-2-phenylmethanesulfonylamino-ethyl)-phenyl]-amide] here?
Answer: Its Ki is > 1 µM.

Question: And the Ki (human EP4 receptor)?
Answer: The Ki was < 0.1 µM.

Question: And the Ki (human EP3 receptor)?
Answer: Its Ki is > 10 µM.

Question: COc1ccc(-c2cc(C(=O)Nc3ccc(CC(=O)NS(=O)(=O)c4ccccc4)cc3)c(C)o2)cc1 [Compound 23, 5-(4-Methoxy-phenyl)-2-methyl-furan-3-carboxylic acid [4-(2-benzenesulfonylamino-2-oxo-ethyl)-phenyl]-amide] was tested. Which Ki (human EP2 receptor) did it give?
Answer: Its Ki is > 1 µM.

Question: And the Ki (human EP4 receptor)?
Answer: The Ki was < 0.1 µM.

Question: And the Ki (human EP3 receptor)?
Answer: The Ki was > 10 µM.

Question: Which Ki (human EP2 receptor) does the source give for O=C(O)Cc1ccc(NC(=O)c2coc(-c3ccccc3)c2)cc1 [Compound 10, {4-[(5-Phenyl-furan-3-carbonyl)-amino]-phenyl}-acetic acid] here?
Answer: The Ki was > 3.16 µM.

Question: And the Ki (human EP4 receptor)?
Answer: The Ki was < 1 µM.

Question: And the Ki (human EP3 receptor)?
Answer: The Ki was > 10 µM.

Question: Which Ki (human EP2 receptor) does the source give for O=C(O)Cc1ccc(NC(=O)c2coc(-c3ccc(OC(F)F)cc3)c2)cc1 [Compound 13, (4-{[5-(4-Difluoromethoxy-phenyl)-furan-3-carbonyl]-amino}-phenyl)-acetic acid] here?
Answer: Its Ki is > 10 µM.

Question: And the Ki (human EP4 receptor)?
Answer: Its Ki is < 1 µM.

Question: What about the Ki (human EP3 receptor) of the same compound?
Answer: Its Ki is > 10 µM.

Question: What does the source list for COc1ccc(-c2cc(C(=O)Nc3ccc(CC(=O)O)cc3)c(C(F)(F)F)o2)cc1 [Compound 4, (4-{[5-(4-Methoxy-phenyl)-2-trifluoromethyl-furan-3-carbonyl]-amino}-phenyl)-acetic acid]?
Answer: Ki (human EP2 receptor): > 10 µM; Ki (human EP4 receptor): < 10 µM; Ki (human EP3 receptor): > 10 µM

Question: What does the source list for Cc1ccccc1S(=O)(=O)NC(=O)Cc1ccc(NC(=O)c2cc(-c3ccc(OC(F)F)cc3)oc2C)cc1 [Compound 26, 5-(4-Difluoromethoxy-phenyl)-2-methyl-furan-3-carboxylic acid {4-[2-oxo-2-(toluene-2-sulfonylamino)-ethyl]-phenyl}-amide]?
Answer: Ki (human EP2 receptor): > 0.316 µM; Ki (human EP4 receptor): < 0.1 µM; Ki (human EP3 receptor): > 10 µM

Question: How did the Ki (human EP2 receptor) turn out when Cc1oc(-c2ccc(OC(F)F)cc2)cc1C(=O)Nc1ccc(CC(=O)NS(=O)(=O)c2ccccc2F)cc1 [Compound 36, 5-(4-Difluoromethoxy-phenyl)-2-methyl-furan-3-carboxylic acid {4-[2-(2-fluoro-benzenesulfonylamino)-2-oxo-ethyl]-phenyl}-amide] was run?
Answer: Its Ki is > 1 µM.

Question: What about the Ki (human EP4 receptor) of the same compound?
Answer: Its Ki is < 0.1 µM.

Question: And the Ki (human EP3 receptor)?
Answer: Its Ki is > 10 µM.

Question: How did the Ki (human EP2 receptor) turn out when Cc1oc(-c2ccc(OC(F)F)cc2)cc1C(=O)Nc1ccc(CC(=O)NS(=O)(=O)c2ccc(O)cc2)cc1 [Compound 35, 5-(4-Difluoromethoxy-phenyl)-2-methyl-furan-3-carboxylic acid {4-[2-(4-hydroxy-benzenesulfonylamino)-2-oxo-ethyl]-phenyl}-amide] was run?
Answer: The Ki was > 3.16 µM.

Question: And the Ki (human EP4 receptor)?
Answer: Its Ki is < 0.1 µM.

Question: What about the Ki (human EP3 receptor) of the same compound?
Answer: The Ki was > 10 µM.

Question: How did the Ki (human EP2 receptor) turn out when Cc1oc(-c2ccc(OC(F)F)cc2)cc1C(=O)Nc1ccc(CC(=O)NS(=O)(=O)c2ccccc2)cc1 [Compound 25, 5-(4-Difluoromethoxy-phenyl)-2-methyl-furan-3-carboxylic acid [4-(2-benzenesulfonylamino-2-oxo-ethyl)-phenyl]-amide] was run?
Answer: The Ki was > 1 µM.

Question: What about the Ki (human EP4 receptor) of the same compound?
Answer: The Ki was < 0.1 µM.

Question: And the Ki (human EP3 receptor)?
Answer: The Ki was > 10 µM.

Question: What does the source list for COc1ccc(-c2cc(C(=O)Nc3ccc(CC(=O)NS(=O)(=O)c4ccccc4)cc3)c(C(F)(F)F)o2)cc1 [Compound 22, 5-(4-Methoxy-phenyl)-2-trifluoromethyl-furan-3-carboxylic acid [4-(2-benzenesulfonylamino-2-oxo-ethyl)-phenyl]-amide]?
Answer: Ki (human EP2 receptor): > 1 µM; Ki (human EP4 receptor): < 1 µM; Ki (human EP3 receptor): > 10 µM

Question: With Cc1oc(-c2ccc(OC(F)F)cc2)cc1C(=O)Nc1ccc(CC(=O)O)cc1 [Compound 18, (4-{[5-(4-Difluoromethoxy-phenyl)-2-methyl-furan-3-carbonyl]-amino}-phenyl)-acetic acid] as the compound, how does the Ki (human EP2 receptor) read?
Answer: The Ki was > 3.16 µM.

Question: What about the Ki (human EP4 receptor) of the same compound?
Answer: Its Ki is < 1 µM.

Question: And the Ki (human EP3 receptor)?
Answer: The Ki was > 10 µM.

Question: With Cc1ccc(S(=O)(=O)NC(=O)Cc2ccc(NC(=O)c3cc(-c4ccc(OC(F)F)cc4)oc3C)cc2)nc1 [Compound 30, 5-(4-Difluoromethoxy-phenyl)-2-methyl-furan-3-carboxylic acid {4-[2-(5-methyl-pyridine-2-sulfonylamino)-2-oxo-ethyl]-phenyl}-amide] as the compound, how does the Ki (human EP2 receptor) read?
Answer: Its Ki is > 1 µM.

Question: What about the Ki (human EP4 receptor) of the same compound?
Answer: Its Ki is < 0.1 µM.

Question: What about the Ki (human EP3 receptor) of the same compound?
Answer: The Ki was > 10 µM.

Question: Which results are given for Cc1oc(-c2ccc(OC(F)F)cc2)cc1C(=O)Nc1ccc(CC(=O)NS(=O)(=O)c2cccs2)cc1 [Compound 29, 5-(4-Difluoromethoxy-phenyl)-2-methyl-furan-3-carboxylic acid {4-[2-oxo-2-(thiophene-2-sulfonylamino)-ethyl]-phenyl}-amide]?
Answer: Ki (human EP2 receptor): > 3.16 µM; Ki (human EP4 receptor): < 0.1 µM; Ki (human EP3 receptor): > 10 µM

Question: What does the source list for CCCS(=O)(=O)NC(=O)Cc1ccc(NC(=O)c2cc(-c3ccc(OC(F)F)cc3)oc2C)cc1 [Compound 27, 5-(4-Difluoromethoxy-phenyl)-2-methyl-furan-3-carboxylic acid {4-[2-oxo-2-(propane-1-sulfonylamino)-ethyl]-phenyl}-amide]?
Answer: Ki (human EP2 receptor): > 10 µM; Ki (human EP4 receptor): < 1 µM; Ki (human EP3 receptor): > 10 µM

Question: Which Ki (human EP2 receptor) does the source give for Cc1ccccc1S(=O)(=O)NC(=O)Cc1ccc(NC(=O)c2coc(-c3ccccc3)c2)cc1 [Compound 24, 5-Phenyl-furan-3-carboxylic acid {4-[2-oxo-2-(toluene-2-sulfonylamino)-ethyl]-phenyl}-amide] here?
Answer: Its Ki is > 0.1 µM.

Question: What about the Ki (human EP4 receptor) of the same compound?
Answer: Its Ki is < 1 µM.

Question: And the Ki (human EP3 receptor)?
Answer: Its Ki is > 10 µM.

Question: Cc1oc(-c2ccccc2)cc1C(=O)Nc1ccc(CC(=O)NS(=O)(=O)c2ccccc2)cc1 [Compound 21, 2-Methyl-5-phenyl-furan-3-carboxylic acid [4-(2-benzenesulfonylamino-2-oxo-ethyl)-phenyl]-amide] was tested. Which Ki (human EP2 receptor) did it give?
Answer: The Ki was > 1 µM.

Question: What about the Ki (human EP4 receptor) of the same compound?
Answer: Its Ki is < 0.1 µM.

Question: What about the Ki (human EP3 receptor) of the same compound?
Answer: The Ki was > 10 µM.

Question: Which results are given for Cc1oc(-c2ccc(OC(F)F)cc2)cc1C(=O)Nc1ccc(CC(=O)NS(=O)(=O)c2ccccc2C(F)(F)F)cc1 [Compound 32, 5-(4-Difluoromethoxy-phenyl)-2-methyl-furan-3-carboxylic acid {4-[2-oxo-2-(2-trifluoromethyl-benzenesulfonylamino)-ethyl]-phenyl}-amide]?
Answer: Ki (human EP2 receptor): > 3.16 µM; Ki (human EP4 receptor): < 0.1 µM; Ki (human EP3 receptor): > 3.16 µM

Question: Cc1noc(C)c1S(=O)(=O)NC(=O)Cc1ccc(NC(=O)c2cc(-c3ccc(OC(F)F)cc3)oc2C)cc1 [Compound 28, 5-(4-Difluoromethoxy-phenyl)-2-methyl-furan-3-carboxylic acid {4-[2-(3,5-dimethyl-isoxazole-4-sulfonylamino)-2-oxo-ethyl]-phenyl}-amide] was tested. Which Ki (human EP2 receptor) did it give?
Answer: Its Ki is > 10 µM.

Question: And the Ki (human EP4 receptor)?
Answer: The Ki was < 1 µM.

Question: And the Ki (human EP3 receptor)?
Answer: The Ki was > 10 µM.

Question: How did the Ki (human EP2 receptor) turn out when COc1ccc(-c2cc(C(=O)Nc3ccc(CC(=O)O)cc3)c(C)o2)cc1 [Compound 6, (4-{[5-(4-Methoxy-phenyl)-2-methyl-furan-3-carbonyl]-amino}-phenyl)-acetic acid] was run?
Answer: The Ki was > 10 µM.

Question: And the Ki (human EP4 receptor)?
Answer: The Ki was < 1 µM.

Question: And the Ki (human EP3 receptor)?
Answer: Its Ki is > 10 µM.
